ChEMBL document CHEMBL1142190, “Development of a new methodology for screening of human immunodeficiency virus type 1 microbicides based on real-time PCR quantification” (Antimicrob Agents Chemother, 2007)

Key:
[1] = target: Human immunodeficiency virus type 1 reverse transcriptase (Human immunodeficiency virus 1) (UniProt Q72547); details: 10 uM
Description: Inhibition of reverse transcriptase assessed as decrease in ssDNA level in cell free virion HIV1 by NERT-based real-time PCR at 10 uM

[2] = tested on: Human immunodeficiency virus 1; test: Inhibition of reverse transcriptase RTY18C mutant in HIV1 Z6gpt assessed as inhibition of ssDNA synthesis

`Cc1ccnc2c1NC(=O)c1cccnc1N2C1CC1` showed an inhibition [1] of 75% and an Activity [2] of 256 µM.
